Results on 14 molecules are retold here after PubChem BioAssay (NCI).

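96-well plates; 48 h exposure; 5 concentrations. Endpoints by linear interpolation between flanking doses. Not reached: highest tested concentration assigned. TGI denotes the concentration required for complete inhibition of growth.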

Test systems include HS 578T breast; KM12 colon; MCF7 breast; MDA-N; NCI-H460 lung; OVCAR-3 ovarian; SF-295 CNS; SW-620 colon; U251 CNS; UACC-257 melanoma.
Common to all, as to test: NCI tumour cell line growth inhibition, 48 h

On to `COc1cc2ccnc3c2c(c1OC)N(C)C=C3`, for which the TGI in the test on HS 578T breast was more than 100 µM; with KM12 colon, more than 100 µM; in the test with MCF7 breast it was 44.6 µM; with MDA-N, 36.1 µM; in the test on NCI-H460 lung, 29 µM; with OVCAR-3 ovarian, more than 100 µM. In addition, the TGI was 78.3 µM in the test with SF-295 CNS, more than 100 µM with SW-620 colon, more than 100 µM with U251 CNS and more than 100 µM in the test on UACC-257 melanoma.

As to `C#CCn1c(=O)c2cc(OC)c(OC)cc2n(CC#C)c1=O`, the TGI in the test on HS 578T breast, in the test on KM12 colon, with MCF7 breast, with MDA-N, with NCI-H460 lung and in the test with OVCAR-3 ovarian was more than 10 µM each time. Also, the TGI in the test with SF-295 CNS, with SW-620 colon, in the test on U251 CNS and with UACC-257 melanoma was more than 10 µM throughout.

Regarding `C=c1c2ccccc2oc2nc3[nH]c(N)c(C#N)c(N)c3c(=N)c12`, the TGI in the test on HS 578T breast is 86.2 µM; in the test with KM12 colon it was 56.4 µM; with MCF7 breast, more than 100 µM; in the test on MDA-N, more than 100 µM; in the test with NCI-H460 lung it was more than 100 µM; in the test on OVCAR-3 ovarian, 43.3 µM. Moreover, the TGI with SF-295 CNS, with SW-620 colon, in the test on U251 CNS and with UACC-257 melanoma was more than 100 µM in each case.

For `CSCCC(NOC(=O)Cc1ccccc1)P(=O)(O)c1ccccc1` (centres undefined), the TGI with HS 578T breast, in the test on MCF7 breast, in the test on MDA-N, in the test with NCI-H460 lung, with OVCAR-3 ovarian and with SF-295 CNS was more than 100 µM throughout. The TGI in the test with SW-620 colon, in the test on U251 CNS and in the test on UACC-257 melanoma was more than 100 µM in each case.

As to `O=C(NC12CC3CC(CC(C3)C1)C2)n1cnc2c(Cl)ncnc21`, the TGI was 97.7 µM in the test on HS 578T breast; more than 100 µM in the test with KM12 colon; more than 100 µM in the test on MCF7 breast; 45.9 µM in the test with MDA-N; 75.8 µM with NCI-H460 lung; 51.3 µM in the test with OVCAR-3 ovarian. Moreover, the TGI was more than 100 µM in the test on SF-295 CNS, more than 100 µM in the test with SW-620 colon, 92.3 µM in the test with U251 CNS and more than 100 µM with UACC-257 melanoma.

For the molecule `Clc1ccc(CCNCCNC2(c3cc4ccccc4s3)CCCCC2)cc1Cl`, the TGI with HS 578T breast worked out at 4.52 µM; with KM12 colon it was 3.1 µM; in the test with MCF7 breast, 3.18 µM; in the test on MDA-N, 3.33 µM; in the test on NCI-H460 lung it was 3.16 µM; with OVCAR-3 ovarian, 2.91 µM. The TGI is 3.04 µM with SF-295 CNS, 3.48 µM in the test on SW-620 colon, 2.99 µM in the test with U251 CNS and 3.29 µM in the test on UACC-257 melanoma.

Take `O=C(N/N=C/c1ccc(O)cc1)NNCCO`: the TGI in the test with HS 578T breast, with KM12 colon, in the test on MCF7 breast, with MDA-N, in the test on NCI-H460 lung and in the test on OVCAR-3 ovarian was more than 100 µM in each case. For the same molecule, the TGI in the test with SF-295 CNS, in the test with SW-620 colon, in the test with U251 CNS and in the test on UACC-257 melanoma was more than 100 µM in each case.

Take `COc1c(C(=O)CC2c3c(cc4oc(C)cc(=O)c4c3OC)OC(=N)C2c2nc3ccccc3[nH]2)c(O)c(OC)c2occc12` (centres undefined): the TGI with HS 578T breast, in the test on KM12 colon, with MCF7 breast, in the test on MDA-N, with NCI-H460 lung and in the test on OVCAR-3 ovarian was more than 100 µM in each case. In addition, the TGI with SF-295 CNS, in the test on SW-620 colon, with U251 CNS and in the test with UACC-257 melanoma was more than 100 µM throughout.

For `CCCC(CCC(=O)O)(CCC(=O)O)[N+](=O)[O-]`, the TGI in the test with HS 578T breast, in the test with KM12 colon, in the test on MCF7 breast, with MDA-N, in the test on NCI-H460 lung and in the test with SF-295 CNS was more than 100 µM each time. For the same molecule, the TGI with SW-620 colon, in the test on U251 CNS and with UACC-257 melanoma was more than 100 µM in each case.

With `C1=Nc2ccc(cc2)-c2ccc(cc2)N=Cc2ccccc2OCc2cccc(n2)COc2ccccc21`, the TGI in the test with HS 578T breast is 47 µM; with KM12 colon, more than 100 µM; in the test with MCF7 breast, more than 100 µM; with MDA-N, more than 100 µM; with NCI-H460 lung, more than 100 µM; in the test on OVCAR-3 ovarian, more than 100 µM. Further, the TGI is more than 75.9 µM with SF-295 CNS, more than 100 µM in the test with SW-620 colon, more than 42.8 µM in the test with U251 CNS and more than 100 µM with UACC-257 melanoma.

With `COc1cc([C@@H]2c3cc4c(cc3[C@H](OC3OC5COC(C(C)C)OC5C(O)C3O)C3COC(=O)[C@@H]32)OCO4)cc(OC)c1OC` (some centres undefined), the TGI in the test with HS 578T breast was more than 30.9 µM; in the test with KM12 colon, 18 µM; in the test with MCF7 breast, 13.2 µM; in the test with MDA-N, 3.53 µM; with NCI-H460 lung it was 7.18 µM; with OVCAR-3 ovarian it was 8.55 µM. The TGI is more than 23.8 µM in the test on SF-295 CNS, more than 100 µM with SW-620 colon, more than 21.2 µM with U251 CNS and 22.6 µM in the test with UACC-257 melanoma.

Consider `Nc1nc(Cl)cc(OCC2(CO)CCCCC2)n1`, for which the TGI in the test with HS 578T breast, with MCF7 breast, with MDA-N, with NCI-H460 lung, in the test on OVCAR-3 ovarian and in the test with SF-295 CNS was more than 100 µM throughout. The TGI in the test with SW-620 colon, in the test on U251 CNS and in the test on UACC-257 melanoma was more than 100 µM throughout.

Take `CN(C)CCNC(=O)c1cccc2c(NC(CCCN=C(N)N)C(=O)O)c3ccccc3nc12` (centres undefined): the TGI in the test on HS 578T breast was 33.2 µM; with KM12 colon, 61.5 µM; with MCF7 breast it was more than 100 µM; with MDA-N, more than 100 µM; with OVCAR-3 ovarian, more than 100 µM; in the test with SF-295 CNS, 41.9 µM. For the same molecule, the TGI in the test with SW-620 colon and with U251 CNS was more than 100 µM in each case.

Turning to `CCOC(=O)C1=C(C)NC(c2ccccc2)=C(C(=O)OCc2ccccc2)C1C#Cc1ccccc1` (centres undefined), the TGI with HS 578T breast, in the test on KM12 colon, in the test on MCF7 breast, in the test on MDA-N, in the test on OVCAR-3 ovarian and in the test with SF-295 CNS was more than 100 µM each time. For the same molecule, the TGI in the test with SW-620 colon, with U251 CNS and with UACC-257 melanoma was more than 100 µM throughout.
